Legend:
[1] = system: subcutaneous mammary CaNT tumors; test: Mouse tumor model, PDT; type: in vivo; details: for persistence of phototoxic effect with time after injection (FIG. 9): different intervals between injection and illumination
Protocol: Experiments were performed to investigate the suitability of compound 7 for the photodynamic therapy (PDT) treatment of tumors, in particular subcutaneous mammary CaNT tumors. These experiments were performed by Photopharmica Ltd. under the guidance of Professor Stan Brown in the Centre for Photobiology and Photodynamic Therapy (Leeds, UK). Different doses of compound 7 (dissolved in Water:PEG-400:1-Methyl-2-pyrrolidone (50:30:20 v/v), with a maximum concentration of 0.5 mg/ml at pH 8.1) were intravenously injected and tumors were illuminated with red light (685±15 nm, 60 J/cm^2, 50 mW/cm^2) at different intervals after injection.

[2] = system: A 549 lung carcinoma cells; test: Photodynamic cytotoxicity after illumination with white halogen light, MTT assay; type: cell-based; details: 0.10 μg/ml
[3] = Photochemical singlet oxygen generation (emission at 1270 nm after laser excitation in toluene); type: physicochemical; details: laser excitation 532 nm, singlet oxygen generating conditions
Protocol: Compound B dissolved in toluene was excited with a 9 mJ, 15 ns laser pulse at 532 nm from a home-built Q-switched frequency doubled Nd:YAG laser operating at 10 Hz. Emission from singlet oxygen at 1270 nm was detected at 90° to the quartz cuvette by an InGaAs photodiode, amplified and then signal-averaged (256 shots) on a digital oscilloscope (HP infinium). A 1260 nm interference filter (FWHM=75 nm) was used to protect the detector from laser light and sensitizer fluorescence. Typical decay times were 28±1 μs, which is characteristic for singlet oxygen decay in toluene (M. Okamoto et al, J. Phys. Chem., 1993, 97, pp. 177-180.) Tetraphenylporphyrin was used as a standard to determine the relative singlet oxygen yield (ΦΔ) (F. Wilkinson, et al, J. Phys. Chem. Ref. Data., 1993, 22, pp. 113-2162.). The relative quantum yield for compound 5 in air saturated toluene was 0.72. […] This stability of the compound according to the invention as exemplified by compound 5 towards singlet oxygen is surprising. In many porphyrins with appending double bonds the double bond reacts chemically with the singlet oxygen generated by the system. […]

[4] = system: A 549 lung carcinoma cells; test: Dark toxicity test, MTT assay; type: cell-based; details: overnight in the dark at 37° C; concentrations up to 30 μg/ml
Protocol: First a toxicity test of compound 5 in cultures of A 549 lung carcinoma cells (American Type Culture Collection) was carried out in the dark. The cells were incubated in a medium containing compound 5 at various concentrations. The cultures were left overnight in the dark at 37° C. Using the MTT (3-(4,5-dimethylthiazol-2-yl)-2,5-diphenyltetrazolium bromide) assay based on the methods of Tada et al (J. Immunol. Meth., 1986, 93, pp. 157-165) and J. Carmichael et al (Cancer Res., 1987, 47, pp. 936-942.) the cell survival was obtained as a percentage of untreated cells of control (FIG. 2). Even at concentrations up to 30 μg/ml in the medium cell survival was complete (within the experimental error), showing that compound 5 is essentially not toxic towards the lung carcinoma cells in the dark.

CAM blood vessels = test: AMD model: CAM (chorioallantoic membrane) model in fertilized chicken eggs, PDT; type: in vivo
Protocol: Age-related Macula Degeneration (AMD) is an eye affliction that eventually leads to blindness. For studies to treat this affliction, an AMD model exists, the so-called CAM (chorioallantoic membrane) model in fertilized chicken eggs. The blood vessels in this chorioallantoic membrane mimic a number of relevant features characteristic for the blood vessels in the eye involved in causing AMD. Experiments with compound 7 were performed at the department of Professor Hubert van den Bergh of the EPFL in Lausanne. Different doses of compound 7 (dissolved in Water:PEG-400:1-Methyl-2-pyrrolidone (50:30:20 v/v), pH 8.1) were injected in the CAM blood vessels and the vessels were illuminated after an 1 minute time-to-treat interval using different amounts of light energy from a far red light source. In the experiments, Visudyne™ (which has an absorption peak at 690 nm), the only photosensitizer approved for clinical use in AMD, was used as the control.
Compound 7 was as potent (already with a low light dose of 24 J/cm^2 and 1 mg/kg of body weight of photosensitizer 7 the desired grade 3 vessel damage could be obtained) as Visudyne™ in closing blood vessels in this model. […] (Legend: A: Compound 7 fluorescence angiography before PDT; B: compound 7 fluorescence angiography during PDT, shown in the circle is the red light irradiation area; C: sulforhodamine 101 fluorescence angiography 18 hours post-treatment).

Compound: Photofrin™ [reference compound]
- dose needed for the same percentage of necrotic area (FIG. 8), compared with compound 7 ([1]; % necrotic area versus dose): requires a higher dose for the same effect
- persistence of phototoxic effect with time after injection (FIG. 9) [1]: remains phototoxic after several hours
- potency relative to compound 7 (fold) ([1]; mouse tumor model, estimated): 2.5 times less potent than compound 7

Compound: 2′-cyano-8′-formyl-N-methyl-1,1a,5a,6-tetrahydroacrido-[4,5,5a,6-bcd]-annulated 2,3-dihydromesoporphyrin dimethylester [compound 5]
- lung carcinoma cells killed ([2]; 4 hours incubation in the dark, then white halogen light 30 mW/cm^2 (270 kJ/m^2)): 70%
- photodynamic cytotoxicity compared with mTHPC (Foscan®) ([2]; 4 hours incubation, white halogen light 30 mW/cm^2 (270 kJ/m^2), FIG. 3): comparable
- photo degradation as measured by changes in the absorption spectrum [3]: No photo degradation
- cell survival as a percentage of untreated cells (dark toxicity) [4]: complete

Compound: Oc1cccc(-c2c3nc(c(-c4cccc(O)c4)c4ccc([nH]4)c(-c4cccc(O)c4)c4nc(c(-c5cccc(O)c5)c5ccc2[nH]5)CC4)C=C3)c1 [Foscan, mTHPC, reference compound]
- potency relative to compound 7 ([1]; mouse tumor model, estimated): more potent than compound 7

Compound: 2′-cyano-8′-formyl-N′-methyl-1′,1a′,5a′,6′-tetrahydroacrido[4,5,5a,6-bcd]-annulated 2,3-dihydromesoporphyrin dicarboxylic acid [compound 7]
- effect of PDT on small CAM blood vessels (FIG. 7) (CAM blood vessels; 12 J/cm^2 at 1 mg/kg body weight, angiography 18 hours post-treatment): closing of the small CAM blood vessels
- potency in closing blood vessels compared with Visudyne™ (CAM blood vessels; CAM model, far red light): as potent
- leakage from the CAM blood vessels compared with Visudyne™ (CAM blood vessels; fluorescence microscopy): much less leakage
- vessel damage grade (CAM blood vessels; light dose 24 J/cm^2, 1 mg/kg of body weight, 1 minute time-to-treat interval): 3 grade
- damage to internal tissue surrounding the tumor ([1]; after light treatment): comparable to Photofrin™
- damage to the skin overlaying the tumor, in contrast to Photofrin™ ([1]; after light treatment): less damage
- skin photosensitivity ([1]; at the effective tumor dose, within 24 hours after drug administration): lacking skin photosensitivity
- persistence of phototoxic effect with time after injection (FIG. 9) [1]: vanishes rapidly in a couple of hours
- PDT effect, light 2 minutes after injection ([1]; drug-to-light interval 2 minutes): already present immediately
- PDT effect, light 180 minutes after injection ([1]; drug-to-light interval 180 minutes): virtually absent
- dose with good tumor killing potential in vivo ([1]; intravenous, red light 685±15 nm, 60 J/cm^2, 50 mW/cm^2): around 2.5 mg/kg
- effect on tumor-necrosis and skin damage, light a couple of hours after injection ([1]; treatment with light a couple of hours after injection): no effect
